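At the GI50, growth is halved. At the TGI there is no net growth.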
Columns and labels:
Assay in all cases: DTP human tumour cell line panel, 384-well format
786-0 renal = system: 786-0 renal
A498 renal = system: A498 renal
BT-549 breast = system: BT-549 breast
CAKI-1 renal = system: CAKI-1 renal
CCRF-CEM leukemia = system: CCRF-CEM leukemia
COLO 205 colon = system: COLO 205 colon
DU-145 prostate = system: DU-145 prostate
EKVX NSCLC = system: EKVX NSCLC
HCC-2998 colon = system: HCC-2998 colon
HCT-116 colon = system: HCT-116 colon
HOP-92 NSCLC = system: HOP-92 NSCLC
HS 578T breast = system: HS 578T breast
HT29 colon = system: HT29 colon
IGROV1 ovarian = system: IGROV1 ovarian
K-562 leukemia = system: K-562 leukemia
KM12 colon = system: KM12 colon
LOX IMVI melanoma = system: LOX IMVI melanoma
M14 melanoma = system: M14 melanoma
MALME-3M melanoma = system: MALME-3M melanoma
MCF7 breast = system: MCF7 breast
MDA-MB-231 breast = system: MDA-MB-231 breast
MDA-MB-435 melanoma = system: MDA-MB-435 melanoma
MDA-MB-468 breast = system: MDA-MB-468 breast
MOLT-4 leukemia = system: MOLT-4 leukemia
NCI-H226 lung = system: NCI-H226 lung
NCI-H322M lung = system: NCI-H322M lung
NCI-H522 lung = system: NCI-H522 lung
NCI/ADR-RES ovarian = system: NCI/ADR-RES ovarian
OVCAR-4 ovarian = system: OVCAR-4 ovarian
OVCAR-5 ovarian = system: OVCAR-5 ovarian
PC-3 prostate = system: PC-3 prostate
RPMI-8226 leukemia = system: RPMI-8226 leukemia
RXF 393 renal = system: RXF 393 renal
SF-268 CNS = system: SF-268 CNS
SF-295 CNS = system: SF-295 CNS
SF-539 CNS = system: SF-539 CNS
SK-MEL-28 melanoma = system: SK-MEL-28 melanoma
SN12C renal = system: SN12C renal
SNB-19 CNS = system: SNB-19 CNS
SNB-75 CNS = system: SNB-75 CNS
SR leukemia = system: SR leukemia
SW-620 colon = system: SW-620 colon
T-47D breast = system: T-47D breast
TK-10 renal = system: TK-10 renal
U251 glioblastoma = system: U251 glioblastoma
UACC-257 melanoma = system: UACC-257 melanoma
UO-31 renal = system: UO-31 renal

Cc1cc(-c2nnc(N)nc2-c2ccc(F)cc2)cc(Cl)n1
GI50 ([…]-0 renal): > 100 µM
TGI (786-0 renal): > 100 µM
GI50 (A498 renal): > 100 µM
TGI (A498 renal): > 100 µM
GI50 (BT-549 breast): 88.8 µM
TGI (BT-549 breast): > 100 µM
GI50 (CAKI-1 renal): > 91.5 µM
TGI (CAKI-1 renal): > 100 µM
GI50 (CCRF-CEM leukemia): 48.3 µM
TGI (CCRF-CEM leukemia): > 100 µM
GI50 (COLO 205 colon): > 100 µM
TGI (COLO 205 colon): > 100 µM
GI50 (DU-145 prostate): > 100 µM
TGI (DU-145 prostate): > 100 µM
GI50 (EKVX NSCLC): 52.9 µM
TGI (EKVX NSCLC): > 100 µM
GI50 (HCC-2998 colon): > 100 µM
TGI (HCC-2998 colon): > 100 µM
GI50 (HCT-116 colon): 75.6 µM
TGI (HCT-116 colon): > 100 µM
GI50 (HOP-92 NSCLC): > 50.9 µM
TGI (HOP-92 NSCLC): > 100 µM
GI50 (HS 578T breast): 62.8 µM
TGI (HS 578T breast): > 100 µM
GI50 (HT29 colon): > 100 µM
TGI (HT29 colon): > 100 µM
GI50 (IGROV1 ovarian): > 90.4 µM
TGI (IGROV1 ovarian): > 100 µM
GI50 (K-562 leukemia): 37.8 µM
TGI (K-562 leukemia): > 100 µM
GI50 (KM12 colon): > 87.1 µM
TGI (KM12 colon): > 100 µM
GI50 (LOX IMVI melanoma): > 100 µM
TGI (LOX IMVI melanoma): > 100 µM
GI50 (M14 melanoma): > 100 µM
TGI (M14 melanoma): > 100 µM
GI50 (MALME-3M melanoma): > 100 µM
TGI (MALME-3M melanoma): > 100 µM
GI50 (MCF7 breast): > 100 µM
TGI (MCF7 breast): > 100 µM
GI50 (MDA-MB-231 breast): > 85.7 µM
TGI (MDA-MB-231 breast): > 100 µM
GI50 (MDA-MB-435 melanoma): > 100 µM
TGI (MDA-MB-435 melanoma): > 100 µM
GI50 (MDA-MB-468 breast): 16.6 µM
TGI (MDA-MB-468 breast): 68.3 µM
GI50 (MOLT-4 leukemia): 30.5 µM
TGI (MOLT-4 leukemia): > 90.8 µM
GI50 (NCI-H226 lung): > 100 µM
TGI (NCI-H226 lung): > 100 µM
GI50 (NCI-H322M lung): > 100 µM
TGI (NCI-H322M lung): > 100 µM
GI50 (NCI-H522 lung): 42.9 µM
TGI (NCI-H522 lung): > 100 µM
GI50 (NCI/ADR-RES ovarian): 25.3 µM
TGI (NCI/ADR-RES ovarian): 86.3 µM
GI50 (OVCAR-4 ovarian): > 91.2 µM
TGI (OVCAR-4 ovarian): > 100 µM
GI50 (OVCAR-5 ovarian): > 100 µM
TGI (OVCAR-5 ovarian): > 100 µM
GI50 (PC-3 prostate): > 73.2 µM
TGI (PC-3 prostate): > 100 µM
GI50 (RPMI-8226 leukemia): 20.3 µM
TGI (RPMI-8226 leukemia): > 61.2 µM
GI50 (RXF 393 renal): 28.5 µM
TGI (RXF 393 renal): > 100 µM
GI50 (SF-268 CNS): > 100 µM
TGI (SF-268 CNS): > 100 µM
GI50 (SF-295 CNS): > 84.4 µM
TGI (SF-295 CNS): > 100 µM
GI50 (SF-539 CNS): > 100 µM
TGI (SF-539 CNS): > 100 µM
GI50 (SK-MEL-28 melanoma): > 100 µM
TGI (SK-MEL-28 melanoma): > 100 µM
GI50 (SN12C renal): > 100 µM
TGI (SN12C renal): > 100 µM
GI50 (SNB-19 CNS): > 100 µM
TGI (SNB-19 CNS): > 100 µM
GI50 (SNB-75 CNS): > 100 µM
TGI (SNB-75 CNS): > 100 µM
GI50 (SR leukemia): 33.9 µM
TGI (SR leukemia): > 100 µM
GI50 (SW-620 colon): > 81.1 µM
TGI (SW-620 colon): > 100 µM
GI50 (T-47D breast): 35.7 µM
TGI (T-47D breast): > 100 µM
GI50 (TK-10 renal): 44.3 µM
TGI (TK-10 renal): > 100 µM
GI50 (U251 glioblastoma): > 75.5 µM
TGI (U251 glioblastoma): > 100 µM
GI50 (UACC-257 melanoma): 66.5 µM
TGI (UACC-257 melanoma): > 100 µM
GI50 (UO-31 renal): 88.6 µM
TGI (UO-31 renal): > 100 µM

Cc1ccc(-c2nc(N)nc3c2nnn3Cc2cccc(CO[C@H]3CCOC3)n2)o1
GI50 ([…]-0 renal): > 100 µM
TGI (786-0 renal): > 100 µM
GI50 (A498 renal): > 100 µM
TGI (A498 renal): > 100 µM
GI50 (BT-549 breast): > 100 µM
TGI (BT-549 breast): > 100 µM
GI50 (CAKI-1 renal): > 100 µM
TGI (CAKI-1 renal): > 100 µM
GI50 (CCRF-CEM leukemia): 72 µM
TGI (CCRF-CEM leukemia): > 100 µM
GI50 (COLO 205 colon): > 100 µM
TGI (COLO 205 colon): > 100 µM
GI50 (DU-145 prostate): > 100 µM
TGI (DU-145 prostate): > 100 µM
GI50 (EKVX NSCLC): > 100 µM
TGI (EKVX NSCLC): > 100 µM
GI50 (HCC-2998 colon): > 100 µM
TGI (HCC-2998 colon): > 100 µM
GI50 (HCT-116 colon): > 100 µM
TGI (HCT-116 colon): > 100 µM
GI50 (HOP-92 NSCLC): > 100 µM
TGI (HOP-92 NSCLC): > 100 µM
GI50 (HS 578T breast): > 100 µM
TGI (HS 578T breast): > 100 µM
GI50 (HT29 colon): > 100 µM
TGI (HT29 colon): > 100 µM
GI50 (IGROV1 ovarian): > 100 µM
TGI (IGROV1 ovarian): > 100 µM
GI50 (K-562 leukemia): 57.5 µM
TGI (K-562 leukemia): > 100 µM
GI50 (KM12 colon): > 100 µM
TGI (KM12 colon): > 100 µM
GI50 (LOX IMVI melanoma): > 100 µM
TGI (LOX IMVI melanoma): > 100 µM
GI50 (M14 melanoma): > 100 µM
TGI (M14 melanoma): > 100 µM
GI50 (MALME-3M melanoma): > 100 µM
TGI (MALME-3M melanoma): > 100 µM
GI50 (MCF7 breast): > 100 µM
TGI (MCF7 breast): > 100 µM
GI50 (MDA-MB-231 breast): 88.2 µM
TGI (MDA-MB-231 breast): > 100 µM
GI50 (MDA-MB-435 melanoma): > 100 µM
TGI (MDA-MB-435 melanoma): > 100 µM
GI50 (MDA-MB-468 breast): 35.5 µM
TGI (MDA-MB-468 breast): 99 µM
GI50 (MOLT-4 leukemia): 42.2 µM
TGI (MOLT-4 leukemia): > 100 µM
GI50 (NCI-H226 lung): > 100 µM
TGI (NCI-H226 lung): > 100 µM
GI50 (NCI-H322M lung): > 100 µM
TGI (NCI-H322M lung): > 100 µM
GI50 (NCI-H522 lung): > 100 µM
TGI (NCI-H522 lung): > 100 µM
GI50 (NCI/ADR-RES ovarian): > 77.1 µM
TGI (NCI/ADR-RES ovarian): > 100 µM
GI50 (OVCAR-4 ovarian): > 100 µM
TGI (OVCAR-4 ovarian): > 100 µM
GI50 (OVCAR-5 ovarian): > 100 µM
TGI (OVCAR-5 ovarian): > 100 µM
GI50 (PC-3 prostate): > 100 µM
TGI (PC-3 prostate): > 100 µM
GI50 (RPMI-8226 leukemia): 93.6 µM
TGI (RPMI-8226 leukemia): > 100 µM
GI50 (RXF 393 renal): 97.4 µM
TGI (RXF 393 renal): > 100 µM
GI50 (SF-268 CNS): > 100 µM
TGI (SF-268 CNS): > 100 µM
GI50 (SF-295 CNS): > 100 µM
TGI (SF-295 CNS): > 100 µM
GI50 (SF-539 CNS): > 100 µM
TGI (SF-539 CNS): > 100 µM
GI50 (SK-MEL-28 melanoma): > 100 µM
TGI (SK-MEL-28 melanoma): > 100 µM
GI50 (SN12C renal): > 100 µM
TGI (SN12C renal): > 100 µM
GI50 (SNB-19 CNS): > 100 µM
TGI (SNB-19 CNS): > 100 µM
GI50 (SNB-75 CNS): > 100 µM
TGI (SNB-75 CNS): > 100 µM
GI50 (SR leukemia): > 73.2 µM
TGI (SR leukemia): > 100 µM
GI50 (SW-620 colon): > 100 µM
TGI (SW-620 colon): > 100 µM
GI50 (T-47D breast): 32.4 µM
TGI (T-47D breast): > 100 µM
GI50 (TK-10 renal): > 100 µM
TGI (TK-10 renal): > 100 µM
GI50 (U251 glioblastoma): > 100 µM
TGI (U251 glioblastoma): > 100 µM
GI50 (UACC-257 melanoma): > 100 µM
TGI (UACC-257 melanoma): > 100 µM
GI50 (UO-31 renal): > 100 µM
TGI (UO-31 renal): > 100 µM
